Tested on: artificial bacterial consortium containing approximately equal numbers of six bacterial strains
Assay: bacterial growth inhibition dose protocol in synthetic white water (O.D. 650 nm, 4 hours)
Type: cell-based
Settings: for Synergy Index: end point 50% inhibition; for Synergy Index / Synergy Index**: SI<1 synergism; for ppm DBNPA: DBNPA alone or in blend with NaOPP giving 50% inhibition; for ppm BIT: BIT alone or in blend with NaOPP giving 50% inhibition; for ppm Dithiol: Dithiol alone or in blend with NaOPP giving 50% inhibition; for ppm BCDMH: BCDMH alone or in blend with NaOPP giving 50% inhibition
Description: The actives were evaluated in synthetic white water with pH values of 5.5 and 8.0. The materials were tested against an artificial bacterial consortium containing approximately equal numbers of six bacterial strains. […] Two of the strains were Kiebsiella pneumoia (ATCC 13883) and Pseudomonas aeruginosa (ATCC 15442). The other four strains were isolated from papermill systems and have been identified as Curtobacterium flaccumfaciens, Burkhlderia cepacia, Bacillus maroccanus, and Pseudomonas glethei. Each strain was inoculated at 37° C. overnight, then suspended in sterile saline. Equal volumes of each strain were then combined to prepare the consortium. The bacterial consortium was distributed into the wells of a microtiter plate in the presence or absence of various concentrations of the active materials. The microtiter plates were incubated at 37° C. Optical density (O.D.) readings at 650 nm were taken initially (t0) and after time 4 hours (t4) of incubation.
The raw data was converted to “bacterial growth inhibition percentages” according to the following formula: % Inhibition=[(a−b)÷a]·100 […]
a=(O.D. of control at tn)−(O.D. of control at t0) b=(O.D. of treatment at tn)−(O.D. of treatment at t0)
The inhibition values can be plotted versus dosage for each active and the particular blend. […] The synergism index (SI) was calculated by the equations described by F. C. Kull, P. C. Eisman, H. D. Sylwestrowicz, and R. L. Mayer (1961), Applied Microbiology 9, 538-541. The values are based on the amount needed to achieve a specified end point. […] Synergy Index (SI)=(QA÷Qa)+(QB÷Qb) […]
QA=quantity of compound A in mixture, producing the end point
Qa=quantity of compound A1 acting alone, producing the end point
QB=quantity of compound B in mixture, producing the end point
Qb=quantity of compound B1 acting alone, producing the end point
If SI is less than 1, synergism exists; if SI is greater than 1, antagonism exists, if SI is equal to 1, an additive effect exists.

With N#CC(Br)(Br)C(N)=O [DBNPA, 2,2-Dibromo-3-nitrilopropionamide] the “Synergy Index” value (pH 5.5, DBNPA & NaOPP) was 1.00, the “ppm DBNPA” value (pH 5.5, ppm active) was 1.69 ppm and the “Synergy Index” value (pH 8.0, DBNPA & NaOPP) was 1.00. The “ppm DBNPA” value (pH 8.0, ppm active) was 3.01 ppm.

With OCl [NaOCl, Sodium Hypochlorite] the “Synergy Index**” value (pH 5.5, NaOCl & NaOPP, Calculated Using 30% Inhibition of Bacterial Growth) was 1.00 and the “ppm NaOCl” value (pH 5.5, NaOCl alone or in blend with NaOPP producing the end point, footnote: 30% Inhibition of Bacterial Growth) was 55.27 ppm.

For O=S(=O)(C(Cl)(Cl)Cl)C(Cl)(Cl)Cl [Sulfone, Bis(trichlormethyl)sulfone], the “Synergy Index” value (pH 5.5, Sulfone & NaOPP) was 1.00, the “ppm Sulfone” value (pH 5.5, Sulfone alone or in blend with NaOPP giving 50% inhibition, ppm active) was 1.154 ppm and the “Synergy Index” value (pH 8.0, Sulfone & NaOPP) was 1.00. For the same molecule, the “Ppm Sulfone” value (pH 8.0, Sulfone alone or in blend with NaOPP giving 50% inhibition, ppm active) was 1.34 ppm.

In the case of O=c1[nH]sc2ccccc12 [BIT, 1,2-Benzisothiazolin-3-one], the “Synergy Index” value (pH 5.5, BIT & NaOPP) is reported as 1.00, the “ppm BIT” value (pH 5.5, ppm active) is reported as 1.46 ppm and the “Synergy Index” value (pH 8.0, BIT & NaOPP) is reported as 1.00. The “ppm BIT” value (pH 8.0, ppm active) was 2.86 ppm.

For O=c1ssc(Cl)c1Cl [Dithiol, 4,5-Dichloro-1,2-dithiol-3-one], the “Synergy Index” value (pH 5.5, Dithiol & NaOPP) was 1.00, the “ppm Dithiol” value (pH 5.5, ppm active) was 0.073 ppm and the “Synergy Index” value (pH 8.0, Dithiol & NaOPP) was 1.00. For the same molecule, the “ppm Dithiol” value (pH 8.0, ppm active) was 0.16 ppm.

For CC1(C)C(=O)N(Cl)C(=O)N1Br [BCDMH, 1-Bromo-3-chloro-5,5-dimethylhydantoin], the “Synergy Index” value (pH 5.5, BCDMH & NaOPP) was 1.00, the “ppm BCDMH” value (pH 5.5, ppm active) was 14.60 ppm and the “Synergy Index” value (pH 8.0, BCDMH & NaOPP) was 1.00. The “ppm BCDMH” value (pH 8.0, ppm active) was 34.37 ppm.

In the case of Cc1ccc(S(=O)(=O)C(I)I)cc1 [DIMTS, Diiodomethyl-p-tolylsulfone], the “Synergy Index” value (pH 5.5, DIMTS & NaOPP) is reported as 1.00, the “ppm DIMTS” value (pH 5.5, DIMTS alone or in blend with NaOPP giving 50% inhibition, ppm active) is reported as 31.65 ppm and the “Synergy Index**” value (pH 8.0, DIMTS & NaOPP, Calculated Using 40% Inhibition of Bacterial Growth) is reported as 1.00. For the same molecule, the “ppm DIMTS” value (pH 8.0, DIMTS alone or in blend with NaOPP producing the end point, footnote: 40% Inhibition of Bacterial Growth) was 22.84 ppm.

Source: patent US20070203126A1, “Synergistic Mixtures of O-Phenylphenol and Dazomet” (priority 2002, published 2007)
